{"source": "patent US6399745B1", "about": "“Use of leptin antagonists for treating insulin resistance in type II diabetes” (Aventis Pharma Deutschland GmbH, priority 1996, dated 2002)", "system": "isolated rat adipocytes", "test": "Glucose transport (2-deoxyglucose uptake) in isolated rat adipocytes after primary culture with leptin, basal and insulin-stimulated", "format": "cell-based", "description": "Adipocytes were prepared from the epididymal fat tissue of male Wistar rats (140-160 g, Hoechst AG breeding station, Kastengrund) by means of digesting with collagenase (Rodbell, 1964, J. Biol. Chem. 239, 375-380), washed twice with KRH (25 mM Hepes free acid, 25 mM Hepes sodium salt, 80 mM NaCl, 1 mM MgSO4, 2 mM CaCl2, 6 mM KCl, 1 mM sodium pyruvate, 0.5% BSA) and once with DMEM (Dulbecco's minimal essential medium), supplemented with 5.5 mM glucose, 20 mM Hepes (pH 7.4), 2% fetal calf serum, 1% BSA, 50 U of penicillin/ml, […], by means of flotation (800×g, 1 min, in small plastic tubes), and finally diluted to a volume of 20 ml of DMEM/g wet weight of the fat tissue (cell titer: approximately 2.5×10^5 cells/ml).\nThe adipocytes were incubated, at 37° C. for 15-18 h under an atmosphere of 5% CO2 and with gentle shaking, in supplemented (see above) DMEM in the presence of 100 nM phenylisopropyladenosine (4 ml of DMEM to 1 ml of cells, cell titer approximately 5×10^4 cell/ml, in 50 ml sterile polypropylene: tubes) and in the presence or absence of leptin. The adipocytes were subsequently washed three times with cold KRH and adjusted to a cell titer of approximately 3×10^5 cells/ml by adding 0.7 ml of glucose-free KRH to the cell layer which remained after the complete removal of the last washing solution. In order to determine the capacity of the adipocytes to be stimulated by insulin, and their sensitivity to insulin, following the primary culture, the washed adipocytes were incubated at 37° C. for 20 min in the absence or presence of human insulin (0.02-50 nM final concentration), and glucose transport or lipogenesis was then measured.\nGlucose transport was measured as the specific uptake of the non-metabolizable glucose analog 2-deoxyglucose (Muller and Wied, 1993, Diabetes 42, 1852-1867). 50 μl of the adipocyte suspension in KRH, which suspension had or had not been preincubated with insulin (see above), were incubated, at 25° C. for 5 min, with 50 μl of KRH which was supplemented with 2-deoxy-D-[2,6-^3H]glucose (0.5 μCi, 0.2 mM). The incubation mixtures were transferred to thin soft-plastic centrifuge tubes, each of which already contained 200 μl of dinonyl phthalate oil, and immediately centrifuged (2,000×g, 30 sec). Using special shears, the tubes were severed within the oil layer (in the vicinity of the upper edge) and the upper halves of the tubes, together with the cell layers which had in each case been floated onto the oil layer, were transferred to scintillation vials. After 10 ml of scintillation fluid (water-based) had been added, the radioactivity associated with the cells was measured. In order to correct for 2-deoxyglucose which had become enclosed in the cell interstices, or had diffused into the cells, in a non-specific manner, the radioactivity of cells which had been preincubated with cytochalasin B (20 μM) was subtracted from the total cell-associated radioactivity of each individual incubation mixture (Gliemann et al., 1972, Biochim. Biophys. Acta 286, 1-9).\nIsolated rat adipocytes were incubated for 15 h in primary culture in the presence or absence of increasing concentrations of leptin. […] The stimulation factor for insulin was calculated as the ratio between insulin-stimulated and basal activities. Each value represents the mean from two independent adipocyte cultures with activity being determined two or three times in each case.\nThe cells were then washed and tested for the stimulation of glucose transport by differing concentrations of insulin. Glucose transport activity is given as a “dpm value” of the 2deoxy-[^3H]glucose which is specifically associated with the cells. Each value represents the mean from two independent adipocyte cultures with the activity being determined four times in each case.", "data": [{"substance": "Insulin: human insulin used to stimulate adipocytes [reference compound]", "values": [{"measurement": "stimulation of glucose transport by insulin", "setting": "insulin 10 nM", "value": "approximately 14 fold"}, {"measurement": "insulin concentration at which effects can already be detected in vitro", "setting": "insulin dose/effect curves, glucose transport", "value": "0.1 to 0.2", "unit": "nM"}, {"measurement": "glucose transport, uptake of 3H-labeled 2-deoxyglucose", "setting": "no leptin, insulin 0.02 nM", "value": 784, "unit": "dpm"}, {"measurement": "glucose transport, uptake of 3H-labeled 2-deoxyglucose", "setting": "no leptin, insulin 0.05 nM", "value": 1285, "unit": "dpm"}, {"measurement": "glucose transport, uptake of 3H-labeled 2-deoxyglucose", "setting": "no leptin, insulin 0.1 nM", "value": 2406, "unit": "dpm"}, {"measurement": "glucose transport, uptake of 3H-labeled 2-deoxyglucose", "setting": "no leptin, insulin 0.2 nM", "value": 4762, "unit": "dpm"}, {"measurement": "glucose transport, uptake of 3H-labeled 2-deoxyglucose", "setting": "no leptin, insulin 0.5 nM", "value": 6976, "unit": "dpm"}, {"measurement": "glucose transport, uptake of 3H-labeled 2-deoxyglucose", "setting": "no leptin, insulin 1 nM", "value": 7981, "unit": "dpm"}, {"measurement": "glucose transport, uptake of 3H-labeled 2-deoxyglucose", "setting": "no leptin, insulin 2 nM", "value": 8576, "unit": "dpm"}, {"measurement": "glucose transport, uptake of 3H-labeled 2-deoxyglucose", "setting": "no leptin, insulin 5 nM", "value": 8956, "unit": "dpm"}, {"measurement": "glucose transport, uptake of 3H-labeled 2-deoxyglucose", "setting": "no leptin, insulin 10 nM", "value": 9064, "unit": "dpm"}, {"measurement": "glucose transport, uptake of 3H-labeled 2-deoxyglucose", "setting": "no leptin, insulin 50 nM", "value": 9072, "unit": "dpm"}, {"measurement": "Glucose Transport, stimulation factor for insulin (stimulated/basal)", "setting": "no leptin, Insulin concentration: 5 nM", "value": 13.4}]}]}
